The values that follow come from patent US20230150986A1, “ANTAGONISTS OF THE MUSCARINIC ACETYLCHOLINE RECEPTOR M4” (Vanderbilt University, priority 2019, published 2023).

The target of the assay is T1, Human M4 (Homo sapiens, UniProt P08173).
T1 construct: Human or rat M4 cDNA, along with the chimeric G protein Gq,5, were transfected into Chinese hamster ovary (CHO-K1) cells; expressed in transfected cells; host or cells: CHO-K1 (M4/Gqi5/CHO)
T1 sequence (P08173 1-479): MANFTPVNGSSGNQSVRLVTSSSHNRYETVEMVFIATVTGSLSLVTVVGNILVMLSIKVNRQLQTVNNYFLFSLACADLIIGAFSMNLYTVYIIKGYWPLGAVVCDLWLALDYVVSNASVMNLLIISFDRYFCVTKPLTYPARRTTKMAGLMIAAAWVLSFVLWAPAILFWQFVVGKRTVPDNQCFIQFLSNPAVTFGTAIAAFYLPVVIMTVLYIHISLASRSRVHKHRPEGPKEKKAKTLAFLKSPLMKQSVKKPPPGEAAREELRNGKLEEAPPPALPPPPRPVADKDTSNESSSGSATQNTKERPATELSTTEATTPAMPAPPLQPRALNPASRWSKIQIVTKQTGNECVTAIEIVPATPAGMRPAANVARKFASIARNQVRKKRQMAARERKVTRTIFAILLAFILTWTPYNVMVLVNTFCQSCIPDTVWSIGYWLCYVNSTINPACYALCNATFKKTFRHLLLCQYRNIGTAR
Put plainly: mAChR M4 cell-based functional assay (calcium flux, decrease of EC80 acetylcholine response). The conditions noted are these: for Human M4 Emin: % ACh maximum at 30 μM; for IC50: CHO-K1 cells with human M4 and Gqi5, EC80 acetylcholine. An outline of the steps: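 CHO-K1 cells stably co-expressing M4 with chimeric Gqi5, loaded with Fluo-4 AM for 50 min at 37 °C; compounds added as 10-point 1:3 curves, then acetylcholine at EC20 (143 s) and EC80 (268 s). Calcium read by FDSS fluorescence ratio; IC50 from four-parameter fit of decrease in EC80 acetylcholine response.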
A general note: A change in cytosolic calcium serves as a functional read-out for many receptors and channels.

The IC50 is the concentration at which inhibition is half-maximal.

With `[2H]C([2H])([C@H]1CCCCO1)N1C[C@H]2C[C@H](Nc3ccc(-c4cc(F)cc(F)c4F)nn3)C[C@H]2C1` [Compound 40, (3aR,5s,6aS)-2-(((R)-tetrahydro-2H-pyran-2-yl)methyl-d2)-N-(6-(2,3,5-trifluorophenyl)pyridazin-3-yl)octahydrocyclopenta[c]pyrrol-5-amine], the “Human M4 Emin” value amounted to 3% and the half-maximal inhibitory concentration (IC50) was 1.48 nM.

Consider `CC1(C)CC(CN2C[C@H]3C[C@H](Nc4ccc(-c5cc(F)cc(F)c5F)nn4)C[C@H]3C2)CC(C)(C)O1` [Compound 82, (3aR,5s,6aS)-2-((2,2,6,6-tetramethyltetrahydro-2H-pyran-4-yl)methyl)-N-(6-(2,3,5-trifluorophenyl)pyridazin-3-yl)octahydrocyclopenta[c]pyrrol-5-amine], for which the “Human M4 Emin” value came to 2% and the IC50 amounted to 62 nM.

Take `Fc1cc(F)c(F)c(-c2ccc(N[C@H]3C[C@@H]4CN(Cc5cccc(Cl)n5)C[C@@H]4C3)nn2)c1` [Compound 20, (3aR,5s,6aS)-2-((6-chloropyridin-2-yl)methyl)-N-(6-(2,3,5-trifluorophenyl)pyridazin-3-yl)octahydrocyclopenta[c]pyrrol-5-amine]: the “Human M4 Emin” value worked out at 5% and the IC50 was determined as 111 nM.

With `[2H]C([2H])(N1C[C@H]2C[C@H](Nc3ccc(-c4cc(F)cc(F)c4F)nn3)C[C@H]2C1)C1(C)CCOCC1` [Compound 14, (3aR,5s,6aS)-2-((4-methyltetrahydro-2H-pyran-4-yl)methyl-d2)-N-(6-(2,3,5-trifluorophenyl)pyridazin-3-yl)octahydrocyclopenta[c]pyrrol-5-amine], the “Human M4 Emin” value was determined as 2% and the IC50 amounted to 6.13 nM.

Consider `Fc1cc(F)c(F)c(-c2ccc(N[C@H]3C[C@@H]4CN(C5CCCCC5)C[C@@H]4C3)nn2)c1` [Compound 34, (3aR,5s,6aS)-2-cyclohexyl-N-(6-(2,3,5-trifluorophenyl)pyridazin-3-yl)octahydrocyclopenta[c]pyrrol-5-amine], for which the “Human M4 Emin” value is reported as 2% and the IC50 amounted to 38.7 nM.

In the case of `Fc1cc(F)c(F)c(-c2ccc(N[C@H]3C[C@@H]4CN(C5CCCCCC5)C[C@@H]4C3)nn2)c1` [Compound 6, (3aR,5s,6aS)-2-cycloheptyl-N-(6-(2,3,5-trifluorophenyl)pyridazin-3-yl)octahydrocyclopenta[c]pyrrol-5-amine], the “Human M4 Emin” value stood at 3% and the half-maximal inhibitory concentration (IC50) stood at 20.9 nM.

With `[2H]C([2H])([C@@H]1CCCOC1)N1C[C@H]2C[C@H](Nc3ccc(-c4cc(F)cc(F)c4F)nn3)C[C@H]2C1` [Compound 66, (3aR,5s,6aS)-2-(((S)-tetrahydro-2H-pyran-3-yl)methyl-d2)-N-(6-(2,3,5-trifluorophenyl)pyridazin-3-yl)octahydrocyclopenta[c]pyrrol-5-amine], the “Human M4 Emin” value is listed as 3% and the IC50 came out at 12 nM.

`OC1(CN2C[C@H]3C[C@H](Nc4ccc(-c5cc(F)cc(F)c5F)nn4)C[C@H]3C2)CCCCC1` [Compound 9, 1-(((3aR,5s,6aS)-5-((6-(2,3,5-trifluorophenyl)pyridazin-3-yl)amino)hexahydrocyclopenta[c]pyrrol-2(1H)-yl)methyl)cyclohexan-1-ol]: the “Human M4 Emin” value amounted to 3% and the IC50 was found to be 6.09 nM.

For the compound `Fc1cc(F)c(F)c(-c2ccc(N[C@H]3C[C@@H]4CN(Cc5ccccc5F)C[C@@H]4C3)nn2)c1` [Compound 89, (3aR,55,6aS)-2-(2-fluorobenzyl)-N-(6-(2,3,5-trifluoropheny)pyridazin-3-yl)octahydrocyclopenta[c]pyrrol-5-amine], the “Human M4 Emin” value is given as 3% and the IC50 was found to be 170 nM.

Regarding `[2H]C([2H])([C@H]1COCCO1)N1C[C@H]2C[C@H](Nc3ccc(-c4cc(F)cc(F)c4F)nn3)C[C@H]2C1` [Compound 39, (3aR,5s,6aS)-2-(((S)-1,4-dioxan-2-yl)methyl-d2)-N-(6-(2,3,5-trifluorophenyl)pyridazin-3-yl)octahydrocyclopenta[c]pyrrol-5-amine], the “Human M4 Emin” value is reported as 3% and the IC50 stood at 0.56 nM.

For `Fc1cc(F)c(F)c(-c2ccc(N[C@H]3C[C@@H]4CN(Cc5ccnnc5)C[C@@H]4C3)nn2)c1` [Compound 38, (3aR,5s,6aS)-2-(pyridazin-4-ylmethyl)-N-(6-(2,3,5-trifluorophenyl)pyridazin-3-yl)octahydrocyclopenta[c]pyrrol-5-amine], the “Human M4 Emin” value is listed as 16% and the 50% inhibitory concentration (IC50) was found to be 5210 nM.

For `Fc1cc(F)c(F)c(-c2ccc(N[C@H]3C[C@@H]4CN(CC5CCCOCC5)C[C@@H]4C3)nn2)c1` (stereo partly drawn) [Compound 73, (3aR,5s,6aS)-2-(oxepan-4-ylmethyl)-N-(6-(2,3,5-trifluorophenyl)pyridazin-3-yl)octahydrocyclopenta[c]pyrrol-5-amine], the “Human M4 Emin” value is 3% and the IC50 amounted to 0.82 nM.

As for `[2H]C([2H])(C1CCOCC1)N1C[C@H]2C[C@H](Nc3ccc(-c4cc(F)cc(F)c4F)nn3)C[C@H]2C1` [Compound 81, (3aR,5s,6aS)-2-((tetrahydro-2H-pyran-4-yl)methyl-d2)-N-(6-(2,3,5-trifluorophenyl)pyridazin-3-yl)octahydrocyclopenta[c]pyrrol-5-amine], the “Human M4 Emin” value is listed as 3% and the IC50 turned out to be 6.7 nM.

Consider `CC(C)(O)CCN1C[C@H]2C[C@H](Nc3ccc(-c4cc(F)cc(F)c4F)nn3)C[C@H]2C1` [Compound 54, 2-methyl-4-((3aR,5s,6aS)-5-((6-(2,3,5-trifluorophenyl)pyridazin-3-yl)amino)hexahydrocyclopenta[c]pyrrol-2(1H)-yl)butan-2-ol], for which the “Human M4 Emin” value was found to be 5% and the IC50 came out at 160 nM.

As for `CC(C1CCOCC1)N1C[C@H]2C[C@H](Nc3ccc(-c4cc(F)cc(F)c4F)nn3)C[C@H]2C1` (stereo partly drawn) [Compound 10, (3aR,5s,6aS)-2-(1-(tetrabydro-2H-pyran-4-yl)ethyl)-N-(6-(2,3,5-trifluorophenyl)pyridazin-3-yl)octahydrocyclopenta[c]pyrrol-5-amine], the “Human M4 Emin” value was 4% and the IC50 came to 5.7 nM.

For `CC(c1ccccn1)N1C[C@H]2C[C@H](Nc3ccc(-c4cc(F)cc(F)c4F)nn3)C[C@H]2C1` (stereo partly drawn) [Compound 13, (3aR,5s,6aS)-2-(1-(pyridin-2-yl)ethyl)-N-(6-(2,3,5-trifluorophenyl)pyridazin-3-yl)octahydrocyclopenta[c]pyrrol-5-amine], the “Human M4 Emin” value is 3% and the half-maximal inhibitory concentration (IC50) came out at 74.6 nM.

For the compound `CC(C)(C)OCCN1C[C@H]2C[C@H](Nc3ccc(-c4cc(F)cc(F)c4F)nn3)C[C@H]2C1` [Compound 53, (3aR,5s,6aS)-2-(2-(tert-butoxy)ethyl)-N-(6-(2,3,5-trifluorophenyl)pyridazin-3-yl)octahydrocyclopenta[c]pyrrol-5-amine], the “Human M4 Emin” value worked out at 3% and the IC50 turned out to be 2.6 nM.

For the compound `Fc1cc(F)c(F)c(-c2ccc(N[C@H]3C[C@@H]4CN(C5CCC6(CCOCC6)CC5)C[C@@H]4C3)nn2)c1` [Compound 5, (3aR,5s,6aS)-2-(3-oxaspiro[5.5]undecan-9-yl)-N-(6-(2,3,5-trifluorophenyl)pyridazin-3-yl)octahydrocyclopenta[c]pyrrol-5-amine], the “Human M4 Emin” value is recorded as 3% and the IC50 was found to be 13.5 nM.

As for `[2H]C([2H])([C@H]1CCOC1)N1C[C@H]2C[C@H](Nc3ccc(-c4cc(F)cc(F)c4F)nn3)C[C@H]2C1` [Compound 41, (3aR,5s,6aS)-2-(((R)-tetrahydrofuran-3-yl)methyl-d2)-N-(6-(2,3,5-trifluorophenyl)pyridazin-3-yl)octahydrocyclopenta[c]pyrrol-5-amine], the “Human M4 Emin” value is given as 3% and the IC50 came out at 64.6 nM.

Take `Fc1cc(F)c(F)c(-c2ccc(N[C@H]3C[C@@H]4CN(CC5CCSCC5)C[C@@H]4C3)nn2)c1` [Compound 67, (3aR,5s,6aS)-2-((tetrahydro-2H-thiopyran-4-yl)methyl)-N-(6-(2,3,5-trifluorophenyl)pyridazin-3-yl)octahydrocyclopenta[c]pyrrol-5-amine]: the “Human M4 Emin” value came to 3% and the IC50 was 4 nM.

Take `[2H]C([2H])(N1C[C@H]2C[C@H](Nc3ccc(-c4cc(F)cc(F)c4F)nn3)C[C@H]2C1)C1(C)CCCOC1` (stereo partly drawn) [Compound 49, (3aR,5s,6aS)-2-((3-methyltetrahydro-2H-pyran-3-yl)methyl-d2)-N-(6-(2,3,5-trifluorophenyl)pyridazin-3-yl)octahydrocyclopenta[c]pyrrol-5-amine]: the “Human M4 Emin” value was 2% and the IC50 turned out to be 25.8 nM.

As to `[2H]C([2H])(N1C[C@H]2C[C@H](Nc3ccc(-c4cc(F)cc(F)c4F)nn3)C[C@H]2C1)C1(C)CCCCO1` (stereo partly drawn) [Compound 50, (3aR,5s,6aS)-2-((2-methyltetrahydro-2H-pyran-2-yl)methyl-d2)-N-(6-(2,3,5-trifluorophenyl)pyridazin-3-yl)octahydrocyclopenta[c]pyrrol-5-amine], the “Human M4 Emin” value is listed as 2% and the IC50 was determined as 6.89 nM.
